Experimental data published in patent publication US20240108702A1, “Use Of Naturally Occurring Cyclic Peptides For Treatment Of SARS-COV-2 Infection” (The University of Southern California, priority 2021, published 2024).
Where a SMILES comes first, the peptide text is derived from it. Bridges are numbered along the chain shown (N, C = ends).

Key:
in vivo = conditions: rat
[1] = Single i.v. bolus PK in a vervet monkey (pilot safety study); format: in vivo, vervet/African green monkey (Chlorocebus aethiops sabaeus); conditions: single 3 mg/kg i.v. bolus
Protocol: Vervet monkey studies: As a pilot safety study, a single dose of Peptide 1 (SEQ ID NO. 1) at 3 mg/kg was administered to an adult male vervet/African green monkey (Chlorocebus aethiops sabaeus) via i.v. bolus. Serial blood samples were collected at 0.5, 1, 4, 8, 24, 48, 72, 96, 120, and 192 h post-administration.
Bioanalytical analysis: Clarified plasma samples from mice were directly diluted into 5% formic acid/5% acetonitrile. Quantitative analysis of Peptide 1 (SEQ ID NO. 1) was performed by LC-MS/MS with reverse-phase liquid chromatography (XBridge™ BEH phenyl 3.5 μm 3×100 mm column, Waters #186003328) on an Acquity™ H-Class UPLC (Waters) coupled to a Xevo™ TQ-S tandem electrospray mass spectrometry running MassLynx™ V4.1 (Waters). Quantitative mass spectroscopy was performed by multiple-reaction monitoring transition 417.32>517.21, with the area under the curve determined by TargetLynx™ (Waters). A synthetic theta defensin-like peptide was used as an internal standard (IS). The lower limit of quantification (LLOQ) of the assay was 1 ng/mL. Intra- and inter-assay precision (percent coefficient of variation [CV]) was ≤3%, and intra and interassay accuracy (% relative error) was ≤5%. Plasma Peptide 1 (SEQ ID NO. 1) concentration analyses for rats and cynomolgus monkey studies were performed at MicroConstants (San Diego, CA) by HPLC using a Mac-Mod™ Analytical ACE C4 column. The mobile phase was nebulized using heated nitrogen in Z-Spray source/interface set to electrospray positive ionization mode, and the compound was detected using MS/MS (LLOQ=10.0 ng/mL). Details of the method are summarized in the MicroConstants method No. MN20038. Clarified plasma samples from a serially sampled vervet were quantified by ultra-performance liquid chromatography Waters Acquity H-Class UPLC. […] Peptide 1 (SEQ ID NO. 1) peak and mass confirmation was performed on post PDA eluent using a Micromass Quattro Ultima™ mass spectrometer with MassLynx™ 4.1 (Waters). The lower limit of quantitation (LLOQ) ranged from 10-30 ng/mL (determined by sample background) to an upper limit of 50 ug/mL. RTD-2 (10 ug/mL) was used as an internal standard. Intra- and interassay precision (% coefficient of variation [CV]) was ≤3%, and intra and interassay accuracy (% relative error) was ≤5%.
Pharmacokinetic analysis: Non-compartmental analysis (NCA) was performed using Phoenix WinNonlin™ (version 8.3.1, Certara USA, Inc.; Princeton NJ) to determine the PK parameters in mice, rats, cynomolgus monkeys, and the vervet. Nominal sampling times were used in the analysis, and data below the lower limit of quantification of the assay were excluded from the analysis. The maximum plasma concentration (Cmax) was determined from visual inspection of the data. In addition, the following parameters were calculated: terminal elimination rate constant (λz), area under the curve extrapolated to infinity (AUC0-∞), area under the curve to dosing interval (AUCτ), mean residence time (MRT), clearance (CL), and volume of distribution at steady state (Vss). AUC was calculated using the linear up, log down method, and the λz was calculated using up to the last four data points of the log-linear terminal phase of the concentration-time profile. Due to sparsely sampled data in mice and rats, the sparse sampling calculation methodology in Phoenix WinNonlin™ was used, which generated a single estimate without standard error for all parameters, except for Cmax. For rats and cynomolgus monkeys, all parameters were calculated using sampling times relative to the beginning of the i.v. infusion.

SMILES: CC[C@H](C)[C@@H]1NC(=O)[C@@H]2CSSC[C@H](NC(=O)[C@H](CCCNC(=N)N)NC(=O)[C@@H]3CSSC[C@H](NC1=O)C(=O)N[C@@H]([C@@H](C)O)C(=O)N[C@@H](CCCNC(=N)N)C(=O)NCC(=O)N[C@@H](Cc1ccccc1)C(=O)N3)C(=O)N[C@@H](CC(C)C)C(=O)N[C@H]1CSSC[C@H](NC(=O)[C@H](C(C)C)NC(=O)CNC(=O)[C@H](CCCNC(=N)N)NC(=O)[C@H](CCCNC(=N)N)NC1=O)C(=O)N[C@@H](CCCNC(=N)N)C(=O)N2 [Peptide 1] (cyclo(GFCRCLCRRGVCRCICTR); disulfide 3-16, 5-14, 7-12)
- MTD (in vivo): 20 mg/kg
- AUC ([1]; male, monkey, plasma, iv): 21900 ng·h/mL
- AUC(0-inf) ([1]; male, monkey, plasma, iv): 22100 ng·h/mL
- Cmax ([1]; male, monkey, plasma, iv): 5190 ng/mL
- MRT ([1]; male, monkey, plasma, iv): 4.71 h
- clearance ([1]; male, monkey, plasma, iv): 2.27 mL/min/kg
- Vd ([1]; male, monkey, plasma, iv, read-out: Vss): 0.639 L/kg
- λz [1]: 0.204 h⁻¹
